Laboratory results reported in patent US10005744B2, “Compounds for the treatment or prevention of breast cancer” (JIANGSU ATOM BIOSCIENCE AND PHARMACEUTICAL CO., LTD., priority 2015, dated 2018).
Where two headings read alike, the source gives them in different places.

Key:
Assay type in all cases: cell-based
MCF-7 = assay: Growth inhibition of breast cancer cell line MCF-7 (Alamar Blue); conditions: Homo sapiens; for IC50: read-out: Half inhibitory concentration (IC50) against MCF-7
Method: (§1) 1. Breast cancer cells MCF-7 (Luminal type cells) and MDA-MB-468 (basal-like cells, which are of the triple-negative type without epithelial-mesenchymal transition) were purchased from Cell Resource Center of Shanghai Institutes for Biological Sciences of the Chinese Academy of Sciences, and cultured with DMEM culture medium(containing 10% of fetal bovine serum, 10 U/mL of penicillin and 0.1 mg/mL of streptomycin) in a 5% CO2 incubator at 37[…] until the cell density was about 90%.
(§2) 2. The cells were inoculated to a 96-well plate at a cell population of 3×10^3/well and then cultured in the 5% CO2 incubator for 24 h at 37[…].
(§3) 3. Tested compounds of different concentration gradients were prepared by using the DMEM culture medium, and added into wells at 100 μL/well as tested compounds wells; and, the DMEM culture liquid was added into wells at 100 μL/well as negative control wells. At 37[…] and in the 5% CO2 incubator, the MCF-7 cells were cultured for 120 h, and MDA-MB-468 cells were cultured for 72 h.
(§4) 4. Resazurin (15 mg/50 mL), Methylene Blue (25 mg/10 mL), Potassium ferricyanide (0.329 g/100 mL) and Potassium ferrocyanide (0.422 g/100 mL) were dissolved into PBS (0.1 M, pH=7.4) to obtain Alamar Blue solution for standby.
(§5) 5. The cells were washed with PBS (0.1 M, pH=7.4) for two times, and the Alamar Blue solution was added into wells at 100 μL/well; and 100 μL of Alamar Blue solution was added into wells without cells to serve as blank control cells. The 96-well plate was placed into the 5% CO2 incubator at 37[…] and cultured for 3 h.
(§6) 6. The fluorescence value of the cells was detected at 530/590 nm by ELIASA Victor X4 (Perkin Elmer). The fluorescence value at each concentration was repetitively measured for 4 times to obtain an average value and a standard deviation. The cell viability was calculated by the following formula[User2]: […]
(§7) 7. The half inhibitory concentration (IC50) of the tested compounds againstt he cell lines was obtained according to the cell viability by Prism Graph software.

MDA-MB-468 = assay: Growth inhibition of breast cancer cell line MDA-MB-468 (Alamar Blue); conditions: Homo sapiens, read-out: Half inhibitory concentration (IC50) against MDA-MB-468
Method: as §1, §2, §3, §4, §5, §6, §7

[1] = test system: human liver cancer cells SK-HEP-1; assay: Growth inhibition of human liver cancer cells SK-HEP-1
Method: as §1, §2, §3, §4, §5, §6, §7
(§8) Growth inhibition tests of the tested compounds 7, 17, 18, 34, 35 and 41 on the human lung cancer cells H1299, human colon cancer cells HT29, human liver cancer cells SK-HEP-1, human colon cancer cells HCT116, human normal liver cells L-02 and WRL-68 were conducted, and the method refers to Embodiment 19 “Inhibition effects of the compounds on the growth of breast cancer cells MCF-7 and MDA-MB-468”.

[2] = test system: human colon cancer cells HT29; assay: Growth inhibition of human colon cancer cells HT29
Method: as §1, §2, §3, §4, §5, §6, §7, §8

[3] = test system: human normal liver cells WRL-68; assay: Growth inhibition of human normal liver cells WRL-68
Method: as §1, §2, §3, §4, §5, §6, §7, §8

[4] = test system: human normal liver cells L-02; assay: Growth inhibition of human normal liver cells L-02
Method: as §1, §2, §3, §4, §5, §6, §7, §8

[5] = test system: human colon cancer cells HCT116; assay: Growth inhibition of human colon cancer cells HCT116
Method: as §1, §2, §3, §4, §5, §6, §7, §8

[6] = test system: human lung cancer cells H1299; assay: Growth inhibition of human lung cancer cells H1299
Method: as §1, §2, §3, §4, §5, §6, §7, §8

[7] = SK-HEP1, read-out: half inhibitory concentration (IC50)
[8] = HT-29, read-out: half inhibitory concentration (IC50)
[9] = WRL68, read-out: half inhibitory concentration (IC50)
[10] = L02, read-out: half inhibitory concentration (IC50)
[11] = HCT-116, read-out: half inhibitory concentration (IC50)
[12] = NCI-H1299, read-out: half inhibitory concentration (IC50)

`Cc1ccc(-c2nc3cc(F)ccc3[se]2)cc1N` [Compound 37, 5-(5-fluorobenzoselenazole-2-yl)-2-methylaniline] was tested, and the IC50 (MCF-7; MCF7, 120 h) was 450 nM and the IC50 (MDA-MB-468; MDA-MB-468, 72 h) was 114 nM.
`Nc1ccc(-c2nc3ccccc3[se]2)cc1Br` [Compound 7, 4-(benzoselenazole-2-yl)-2-bromoaniline] was tested, and the IC50 [1, 7] was > 10000 nM, the IC50 [2, 8] was > 10000 nM and the IC50 [3, 9] was > 10000 nM. The IC50 (MCF-7; MCF7, 120 h) was 56.7 nM, the IC50 [4, 10] was > 10000 nM and the IC50 [5, 11] was > 10000 nM. For the same compound, the IC50 [6, 12] was > 10000 nM and the IC50 (MDA-MB-468; MDA-MB-468, 72 h) was 74.1 nM.
In the case of `Cc1ccc2[se]c(-c3ccc(N)c(C)c3)nc2c1` [Compound 26, 2-methyl-4-(5-methylbenzoselenazole-2-yl)aniline], the IC50 (MCF-7; MCF7, 120 h) is reported as 134 nM.
In the case of `Nc1c(F)cc(-c2nc3cc(F)ccc3[se]2)cc1F` [Compound 41, 2,6-difluoro-4-(5-fluorobenzoselenazole-2-yl)aniline], the IC50 [1, 7] is reported as > 10000 nM, the IC50 [2, 8] is reported as > 10000 nM and the IC50 [3, 9] is reported as > 10000 nM. For the same compound, the IC50 (MCF-7; MCF7, 120 h) was 56.8 nM, the IC50 [4, 10] was > 10000 nM and the IC50 [5, 11] was > 10000 nM. For the same compound, the IC50 [6, 12] was > 10000 nM and the IC50 (MDA-MB-468; MDA-MB-468, 72 h) was 20.1 nM.
Work on `Nc1ccc(-c2nc3cc(F)ccc3[se]2)cc1Br` [Compound 14, 2-bromo-4-(5-fluorobenzoselenazole-2-yl)aniline] yielded an IC50 (MCF-7; MCF7, 120 h) of 188 nM and an IC50 (MDA-MB-468; MDA-MB-468, 72 h) of 138 nM.
Compound `CC(=O)O[C@H]1C(=O)[C@@]2(C)[C@H]([C@H](OC(=O)c3ccccc3)[C@]3(O)C[C@H](OC(=O)[C@H](O)[C@@H](NC(=O)c4ccccc4)c4ccccc4)C(C)=C1C3(C)C)[C@]1(OC(C)=O)CO[C@@H]1C[C@@H]2O` [Paclitaxel, paclitaxel, reference compound] has an IC50 ([1]; SK-HEP1, SK-HEP-1 cells, range stated over the six cell lines, read-out: half inhibitory concentration (IC50)) of 1.59 to 15.3 nM, an IC50 ([2]; HT-29, HT29 cells, range stated over the six cell lines, read-out: half inhibitory concentration (IC50)) of 1.59 to 15.3 nM and an IC50 ([3]; WRL68, WRL-68 cells, range stated over the six cell lines, read-out: half inhibitory concentration (IC50)) of 1.59 to 15.3 nM. It also gave an IC50 (MCF-7; MCF7, MCF-7 cells cultured 120 h with compound, Alamar Blue) of 4.6 nM, an inhibition at 0.5 µM (MCF-7; MCF7, highest concentration, 500 nM, read-out: inhibition rate to MCF-7 cell line) of 70% and an IC50 ([4]; L02, L-02 cells, range stated over the six cell lines, read-out: half inhibitory concentration (IC50)) of 1.59 to 15.3 nM. It also gave an IC50 ([5]; HCT-116, HCT116 cells, range stated over the six cell lines, read-out: half inhibitory concentration (IC50)) of 1.59 to 15.3 nM, an IC50 ([6]; NCI-H1299, H1299 cells, range stated over the six cell lines, read-out: half inhibitory concentration (IC50)) of 1.59 to 15.3 nM and an IC50 (MDA-MB-468; MDA-MB-468 cells cultured 72 h with compound, Alamar Blue) of 4.43 nM.
`Nc1ccc(-c2nc3cc(F)ccc3[se]2)cc1F` [Compound 34, 2-fluoro-4-(5-fluorobenzoselenazole-2-yl)aniline] was tested, and the IC50 [1, 7] was > 10000 nM, the IC50 [2, 8] was > 10000 nM and the IC50 [3, 9] was > 10000 nM. For the same compound, the IC50 (MCF-7; MCF7, 120 h) was 52.4 nM, the IC50 [4, 10] was > 10000 nM and the IC50 [5, 11] was > 10000 nM. For the same compound, the IC50 [6, 12] was > 10000 nM and the IC50 (MDA-MB-468; MDA-MB-468, 72 h) was 29.1 nM.
For `Nc1c(F)cc(-c2nc3cc(F)ccc3[se]2)cc1Br` [Compound 35, 2-bromo-6-fluoro-4-(5-fluorobenzoselenazole-2-yl)aniline], the IC50 [1, 7] was > 10000 nM, the IC50 [2, 8] was > 10000 nM and the IC50 [3, 9] was > 10000 nM. The IC50 (MCF-7; MCF7, 120 h) was 41.6 nM, the IC50 [4, 10] was > 10000 nM and the IC50 [5, 11] was > 10000 nM. The IC50 [6, 12] was > 10000 nM and the IC50 (MDA-MB-468; MDA-MB-468, 72 h) was 39.7 nM.
For `Cc1cc(-c2nc3cc(F)ccc3[se]2)ccc1N` [Compound 17, 4-(5-fluorobenzoselenazole-2-yl)-2-methylaniline], the IC50 [1, 7] was > 10000 nM, the IC50 [2, 8] was > 10000 nM and the IC50 [3, 9] was > 10000 nM. For the same compound, the IC50 (MCF-7; MCF7, 120 h) was 72.8 nM, the IC50 [4, 10] was > 10000 nM and the IC50 [5, 11] was > 10000 nM. For the same compound, the IC50 [6, 12] was > 10000 nM and the IC50 (MDA-MB-468; MDA-MB-468, 72 h) was 58.5 nM.
For `Cc1cc(-c2nc3cc(F)ccc3[se]2)cc(Br)c1N` [Compound 18, 2-bromo-4-(5-fluorobenzoselenazole-2-yl)-6-methylaniline], the IC50 [1, 7] was > 10000 nM, the IC50 [2, 8] was > 10000 nM and the IC50 [3, 9] was > 10000 nM. For the same compound, the IC50 (MCF-7; MCF7, 120 h) was 91.9 nM, the IC50 [4, 10] was > 10000 nM and the IC50 [5, 11] was > 10000 nM. For the same compound, the IC50 [6, 12] was > 10000 nM and the IC50 (MDA-MB-468; MDA-MB-468, 72 h) was 70.9 nM.
